This is an account of results in publication PMC10584170, “Machine learning-based phenotypic imaging to characterise the targetable biology of Plasmodium falciparum male gametocytes for the development of transmission-blocking antimalarials” (PLOS Pathogens, 2023).

In assay [1] the test system is P. falciparum male gametocytes. Kind of assay: P. falciparum Dual Gamete Formation Assay (PfDGFA), male readout (exflagellation). The assay is classed as cell-based, Plasmodium falciparum NF54. The conditions noted are these: for Average inhibition male (%): average of replicates; for % inhibition male (individual replicates) R1: replicate R1; for % inhibition male (individual replicates) R3: replicate R3; for % inhibition male (individual replicates) R4: replicate R4; for Activity: hit = >50% inhibition in male or female readout in at least 3 replicates, 0 = no class assigned. The method, boiled down: (§1)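 Read-outs are automated image counts of exflagellation centres (brightfield, 10 frames over 1 s) and Pfs25-positive female gametes (Cy3 fluorescence).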

The subject of assay [2] is P. falciparum female gametocytes. Kind of assay: P. falciparum Dual Gamete Formation Assay (PfDGFA), female readout (Pfs25-positive female gametes). The conditions noted are these: for Average inhibition female (%): average of replicates; for % inhibition female (individual replicates) R1: replicate R1; for % inhibition female (individual replicates) R3: replicate R3; for % inhibition female (individual replicates) R4: replicate R4. Format: cell-based, Plasmodium falciparum NF54. The method, boiled down: as §1

Setting [3] is: 2µM, 24h preincubation with gametocytes prior to induction of gametogenesis.
Setting [4] is: 2µM, 24h preincubation, hits selected on >50% inhibition in the male readout across replicates.
Where [5] appears, read: PfDGFA at 2µM, 24h preincubation.
Setting [6] is: 2µM, 24h preincubation, hits selected on >50% inhibition in the female readout across replicates.
Where [7] appears, read: PfDGFA at 2µM, 24h preincubation with gametocytes.
[8] abbreviates: number of replicates with >50% inhibition in the male readout, 2µM.
The mark [9] stands for this setting: number of replicates with >50% inhibition in the female readout, 2µM.
[10] abbreviates: PfDGFA at 2µM, 24h preincubation with gametocytes prior to induction of gametogenesis.

Regarding `CN(C)S(=O)(=O)n1ccc2c3c(N)nc(N)nc3ccc21` [TCMDC-137973], in assay [1] (setting [3]), the “Average inhibition male (%)” value was -3.2%, the “% inhibition male (individual replicates) R1” value was determined as 31.1%, the “% inhibition male (individual replicates) R3” value was -3.2% and the “% inhibition male (individual replicates) R4” value was -51.1%. The HitlevelM in assay [1] (setting [4]) came out at 0. The compound further showed an Activity in assay [1] (setting [5]) of 0. Moreover, in assay [2] (setting [3]), the “Average inhibition female (%)” value is 12.1%, the “% inhibition female (individual replicates) R1” value worked out at 13.5%, the “% inhibition female (individual replicates) R3” value is 33.5% and the “% inhibition female (individual replicates) R4” value is listed as 1.8%. Further, in assay [2] (setting [6]), the HitlevelF was 0.

In the case of `CCCCOc1c(CNCCCCCCNCc2ccc3ccccc3c2OCCCC)ccc2ccccc12.CS(=O)(=O)O` [TCMDC-137975], in assay [1] (setting [7]), the “Average inhibition male (%)” value came out at 78.3%, the “% inhibition male (individual replicates) R1” value was 78.0% and the “% inhibition male (individual replicates) R4” value turned out to be 67.8%. In assay [1] (setting [8]), the HitlevelM amounted to 3. Also, in assay [2] (setting [7]), the “Average inhibition female (%)” value was 39.1%, the “% inhibition female (individual replicates) R1” value is 52.1%, the “% inhibition female (individual replicates) R3” value is recorded as 14.4% and the “% inhibition female (individual replicates) R4” value worked out at 37.6%. For the same compound, in assay [2] (setting [9]), the HitlevelF was 2.

For `CC(C)(C)c1ccc(-c2cc3c(ccc4nc(N)nc(N)c43)[nH]2)cc1` [TCMDC-137977], in assay [1] (setting [3]), the “Average inhibition male (%)” value amounted to 2.0%, the “% inhibition male (individual replicates) R1” value amounted to 6.1%, the “% inhibition male (individual replicates) R3” value worked out at 0.4% and the “% inhibition male (individual replicates) R4” value is -0.46%. For the same compound, in assay [1] (setting [4]), the HitlevelM was found to be 0. For the same compound, the Activity in assay [1] (setting [5]) was found to be 0. Besides, in assay [2] (setting [3]), the “Average inhibition female (%)” value is reported as 6.0%, the “% inhibition female (individual replicates) R1” value was 2.7%, the “% inhibition female (individual replicates) R3” value is reported as -16.6% and the “% inhibition female (individual replicates) R4” value is given as 37.6%. In assay [2] (setting [6]), this compound showed a HitlevelF of 0.

Turning to `Nc1nc(N)c2c(ccc3c2ccn3Cc2ccccn2)n1` [TCMDC-137980], in assay [1] (setting [10]), the “% inhibition male (individual replicates) R1” value is on record as -11.9% and the “% inhibition male (individual replicates) R4” value was -51.4%. Moreover, in assay [1] (setting [5]), the “Average inhibition male (%)” value was -22.7%. Also, in assay [2] (setting [10]), the “% inhibition female (individual replicates) R1” value was found to be 1.3%, the “% inhibition female (individual replicates) R3” value is -9.6% and the “% inhibition female (individual replicates) R4” value came out at 4.7%. For the same compound, in assay [2] (setting [5]), the “Average inhibition female (%)” value is -4.0%.

With `C=CCn1ccc2c3c(N)nc(N)nc3ccc21` [TCMDC-137995], in assay [1] (setting [10]), the “% inhibition male (individual replicates) R1” value turned out to be 38.6%, the “% inhibition male (individual replicates) R3” value is recorded as 29.0% and the “% inhibition male (individual replicates) R4” value is 16.7%. Moreover, in assay [1] (setting [5]), the “Average inhibition male (%)” value worked out at 27.9%. Also, in assay [2] (setting [10]), the “% inhibition female (individual replicates) R1” value is on record as -8.1%, the “% inhibition female (individual replicates) R3” value is listed as -14.1% and the “% inhibition female (individual replicates) R4” value was found to be 22.9%. In addition, the “Average inhibition female (%)” value in assay [2] (setting [5]) is recorded as -3.2%.

`CCCN(CCC)CCCN(CCCN(CCC)CCC)c1cc(C)nc(Nc2ccc3cc(Br)ccc3c2)n1.Cl` [TCMDC-138006]: in assay [1] (setting [7]), the “Average inhibition male (%)” value stood at 65.9%, the “% inhibition male (individual replicates) R1” value worked out at 64.4%, the “% inhibition male (individual replicates) R3” value is given as 70.2% and the “% inhibition male (individual replicates) R4” value was 75.1%. In assay [1] (setting [8]), the HitlevelM came out at 4. In addition, in assay [2] (setting [7]), the “Average inhibition female (%)” value is 38.7%, the “% inhibition female (individual replicates) R1” value was 42.6%, the “% inhibition female (individual replicates) R3” value is recorded as 25.8% and the “% inhibition female (individual replicates) R4” value is reported as 40.6%. In assay [2] (setting [9]), this compound displayed a HitlevelF of 0.

In the case of `Cc1ccc2ccncc2c1N` [TCMDC-138025], in assay [1] (setting [10]), the “% inhibition male (individual replicates) R1” value is reported as 6.2%, the “% inhibition male (individual replicates) R3” value turned out to be 45.8% and the “% inhibition male (individual replicates) R4” value was found to be 37.3%. Further, the “Average inhibition male (%)” value in assay [1] (setting [5]) is recorded as 29.9%. In addition, in assay [2] (setting [10]), the “% inhibition female (individual replicates) R1” value is -5.1%, the “% inhibition female (individual replicates) R3” value was -43.7% and the “% inhibition female (individual replicates) R4” value is reported as -6.6%. Also, the “Average inhibition female (%)” value in assay [2] (setting [5]) is given as -17.6%.

`Cc1c(Cc2ccc(C(C)C)cc2)cnc2nc(N)nc(N)c12` [TCMDC-138044]: in assay [1] (setting [10]), the “% inhibition male (individual replicates) R1” value is 10.0%, the “% inhibition male (individual replicates) R3” value is -13.9% and the “% inhibition male (individual replicates) R4” value was -19.8%. Besides, the “Average inhibition male (%)” value in assay [1] (setting [5]) is listed as -5.8%. In addition, in assay [2] (setting [10]), the “% inhibition female (individual replicates) R1” value is 2.8%, the “% inhibition female (individual replicates) R3” value was -15.2% and the “% inhibition female (individual replicates) R4” value is -3.9%. In assay [2] (setting [5]), the “Average inhibition female (%)” value is -2.8%.

Regarding `COc1ccc(Cc2cnc3nc(N)nc(N)c3c2C)cc1OC.O=S(=O)(O)CCO` [TCMDC-138057], in assay [1] (setting [3]), the “Average inhibition male (%)” value is on record as -16.7%, the “% inhibition male (individual replicates) R1” value was 13.3%, the “% inhibition male (individual replicates) R3” value is listed as -15.1% and the “% inhibition male (individual replicates) R4” value is recorded as -55.1%. Further, in assay [1] (setting [4]), the HitlevelM was 0. The compound further showed an Activity in assay [1] (setting [5]) of 0. In assay [2] (setting [3]), the “Average inhibition female (%)” value turned out to be 4.5%, the “% inhibition female (individual replicates) R1” value was 12.4%, the “% inhibition female (individual replicates) R3” value is recorded as -12.7% and the “% inhibition female (individual replicates) R4” value is recorded as 12.4%. Further, the HitlevelF in assay [2] (setting [6]) was determined as 0.

As to `COc1cccc(Cc2cnc3nc(N)nc(N)c3c2C)c1` [TCMDC-138060], in assay [1] (setting [10]), the “% inhibition male (individual replicates) R1” value turned out to be 14.7% and the “% inhibition male (individual replicates) R4” value is -36.5%. In addition, in assay [1] (setting [5]), the “Average inhibition male (%)” value turned out to be 7.0%. For the same compound, in assay [2] (setting [10]), the “% inhibition female (individual replicates) R1” value is -4.3%, the “% inhibition female (individual replicates) R3” value is given as -2.0% and the “% inhibition female (individual replicates) R4” value is reported as 3.5%. Moreover, the “Average inhibition female (%)” value in assay [2] (setting [5]) is on record as -1.4%.

In the case of `COc1ccc(Cc2c(N)nc3nc(N)nc(N)c3c2C)cc1.Cl` [TCMDC-138061], in assay [1] (setting [10]), the “% inhibition male (individual replicates) R1” value came to 17.1% and the “% inhibition male (individual replicates) R4” value is recorded as -37.2%. For the same compound, the “Average inhibition male (%)” value in assay [1] (setting [5]) is 0.0933%. Also, in assay [2] (setting [10]), the “% inhibition female (individual replicates) R1” value is reported as -3.3%, the “% inhibition female (individual replicates) R3” value turned out to be 4.2% and the “% inhibition female (individual replicates) R4” value is -0.2%. Besides, in assay [2] (setting [5]), the “Average inhibition female (%)” value is given as 0.4%.

With `Cc1nc(N)nc(N)c1CCCOc1ccccc1Br` [TCMDC-138069], in assay [1] (setting [3]), the “Average inhibition male (%)” value is on record as 1.8%, the “% inhibition male (individual replicates) R1” value came to 12.4%, the “% inhibition male (individual replicates) R3” value is given as -15.7% and the “% inhibition male (individual replicates) R4” value is -23.1%. This compound also had a HitlevelM in assay [1] (setting [4]) of 0. Further, in assay [1] (setting [5]), the Activity came to 0. Moreover, in assay [2] (setting [3]), the “Average inhibition female (%)” value was determined as 5.9%, the “% inhibition female (individual replicates) R1” value is recorded as 14.2%, the “% inhibition female (individual replicates) R3” value was found to be 13.3% and the “% inhibition female (individual replicates) R4” value is -1.6%. Also, the HitlevelF in assay [2] (setting [6]) is 0.

As for `Cc1nc(N)nc(N)c1-c1ccc(Br)c([N+](=O)[O-])c1` [TCMDC-138071], in assay [1] (setting [3]), the “Average inhibition male (%)” value is reported as -11.3%, the “% inhibition male (individual replicates) R1” value is on record as 15.3%, the “% inhibition male (individual replicates) R3” value amounted to 5.2% and the “% inhibition male (individual replicates) R4” value was -48.5%. For the same compound, in assay [1] (setting [4]), the HitlevelM was 0. Moreover, in assay [1] (setting [5]), the Activity was determined as 0. Also, in assay [2] (setting [3]), the “Average inhibition female (%)” value was determined as 6.9%, the “% inhibition female (individual replicates) R1” value is given as 11.0%, the “% inhibition female (individual replicates) R3” value turned out to be 2.2% and the “% inhibition female (individual replicates) R4” value stood at 10.1%. In assay [2] (setting [6]), this compound yielded a HitlevelF of 0.

As to `Cl.Clc1ccc(CNCCCCCCCNCc2ccc(Cl)c(Cl)c2)cc1Cl` [TCMDC-138075], in assay [1] (setting [3]), the “Average inhibition male (%)” value came out at 58.0%, the “% inhibition male (individual replicates) R1” value was 51.9% and the “% inhibition male (individual replicates) R4” value amounted to 51.1%. In addition, the HitlevelM in assay [1] (2µM, 24h preincubation, number of replicates with >50% inhibition in the male readout) was found to be 3. In assay [2] (setting [3]), the “Average inhibition female (%)” value is 16.8%, the “% inhibition female (individual replicates) R1” value is reported as 19.3%, the “% inhibition female (individual replicates) R3” value is reported as 11.6% and the “% inhibition female (individual replicates) R4” value came to 13.1%. This compound showed a HitlevelF in assay [2] (2µM, 24h preincubation, number of replicates with >50% inhibition in the female readout) of 0.

On to `CC(=O)c1ccc2nc[nH]c(=O)c2c1` [TCMDC-138172], for which, in assay [1] (setting [7]), the “Average inhibition male (%)” value is 79.0%, the “% inhibition male (individual replicates) R1” value is reported as 88.9%, the “% inhibition male (individual replicates) R3” value is 57.7% and the “% inhibition male (individual replicates) R4” value is listed as 96.3%. The same compound showed a HitlevelM in assay [1] (setting [8]) of 4. For the same compound, in assay [2] (setting [7]), the “Average inhibition female (%)” value amounted to 55.1%, the “% inhibition female (individual replicates) R1” value is 62.7%, the “% inhibition female (individual replicates) R3” value is 39.9% and the “% inhibition female (individual replicates) R4” value is 66.0%. This compound also registered a HitlevelF in assay [2] (setting [9]) of 3.
